This data set has as its system hiPS-CMs monolayers. In words: Contraction (impedance) of hiPS-CM monolayers (CardioExcyte 96). Type of data set: cell-based, human. The procedure:
The results described above on the excitability alterations of hiPS-CMs indicate that BeKm-1 should also impair excitation–contraction coupling (ECC) in these cells. In spontaneously beating cardiomyocytes, the toxin should impact the contractility in a coherent manner with spontaneous APs and CaT. We investigated the contractions using the CardioExcyte 96 system. […] Coherent with the proarrhythmic properties of 2 nM of BeKm-1, both the mean SD1, the standard deviation of instantaneous contraction-to-contraction interval variability, and SD2, the continuous long-term interval variability, increased by 2- and 1.7-fold, respectively (Figure S5I).
hiPS-CMs: All experiments were performed on the human-induced pluripotent stem cell (hiPSC) clone C2a that has been previously characterized, including cardiac differentiation and electrophysiology data. Cells were expanded on stem cell-qualified matrigel-coated plates (0.05 mg/mL; BD Bioscience, Le Pont de Claix, France) and cultured in StemMACS iPS-BREW XF medium (Miltenyi Biotec, Paris, France). Cells were passaged every […] using Gentle Cell Dissociation Buffer (StemCell Technologies, Grenoble, France). Prior to differentiation, cells were cultured as a monolayer in StemMACS iPS-brew supplemented with 1 × Y-27632 Rho-associated, coiled-coil containing protein kinase (ROCK) inhibitor (StemCell Technologies, Grenoble, France). When hiPSCs reached proper confluence, they were differentiated into cardiomyocytes using previously described « Matrix sandwich » protocol. At day 20 ± 1 of differentiation, beating cardiomyocytes were manually dissected and isolated from non-beating cells. Briefly, cardiomyocytes were washed with phosphate-buffered saline (PBS) and treated with TrypLE Express (10x) (Thermo Fisher Scientific, Illkirch-Graffenstaden, France) for 5 min at 37 °C. The enzyme was inactivated by adding RPMI1640 medium containing 20% (vol/vol) KnockOut Serum Replacement (KSR) (Thermo Fisher Scientific, Illkirch-Graffenstaden, France). The supernatant was removed, and cells were suspended in RPMI1640 medium containing 20% (vol/vol) KSR and ROCK inhibitor. Then, the cells were plated on specific supports suitable for functional assessments.
The beating properties and the electrical field potentials of hiPS-CMs were evaluated with a CardioExcyte96 system. After dissociation, hiPS-CMs were seeded on NSP-96 Sensor Plates (Nanion Technologies, Munich, Germany) at a density of 40,000 viable cells per well. Sensor plates were previously coated with 10 µg/mL fibronectin for 1 h at 37 °C. The cells were maintained at 37 °C, and the medium was replaced every 2 days for 1 week. On the day of beating assessment, the whole medium was replaced 4 h prior to experiments, and cells were incubated at 37 °C onto the CardioExcyte96 system. Meanwhile, cells were monitored to ensure the full stabilization of beating parameters until BeKm-1 was tested at various concentrations ([…]). Tfall and Trise were determined as the time between 10% and 90% of contraction or relaxation, respectively. Pulse width (PWx) was determined as the time corresponding to the width of the signal at 90% of relaxation. Electric field potentials (EFPs) were recorded using CardioExcyte96 system. For both contraction and EFPs, 10 sequences of 30 s of acquisition were analyzed before and after BeKm-1 addition. The CardioExcyte system is best to analyze the kinetic parameters of the contractile properties of hiPS-CMs but has intrinsic limitations to assess properly variations in contractile force.

The mark [1] stands for this setting: 2 nM vs vehicle, n = 8 monolayers.

Positions of bridges follow the written chain, without caps; N, C: chain ends. Residues, ends and D or L forms follow the SMILES beside them.

Turning to `CC[C@H](C)[C@H](NC(=O)[C@H](CC(=O)O)NC(=O)[C@@H](NC(=O)[C@@H]1CCCN1C(=O)[C@@H](N)CCCNC(=N)N)[C@@H](C)O)C(=O)N[C@@H](CCCCN)C(=O)N[C@H]1CSSC[C@@H]2NC(=O)[C@H](CCCNC(=N)N)NC(=O)CNC(=O)[C@H](CC(N)=O)NC(=O)[C@H]([C@@H](C)O)NC(=O)[C@H](CCCCN)NC(=O)CNC(=O)[C@H](Cc3ccccc3)NC(=O)[C@H](CCCNC(=N)N)NC(=O)[C@H](CO)NC(=O)[C@H](CCCCN)NC(=O)[C@@H]3CSSC[C@@H](C(=O)N[C@@H](Cc4ccccc4)C(=O)O)NC(=O)[C@H](CC(=O)O)NC(=O)[C@H](CSSC[C@H](NC(=O)[C@H](CCC(N)=O)NC(=O)[C@H](Cc4ccc(O)cc4)NC(=O)[C@H](CO)NC(=O)[C@H](CCC(=O)O)NC(=O)[C@H](CO)NC1=O)C(=O)N[C@@H](Cc1ccccc1)C(=O)N1CCC[C@H]1C(=O)N[C@@H](C(C)C)C(=O)N3)NC(=O)[C@H](Cc1ccccc1)NC(=O)CNC(=O)[C@H](CC(N)=O)NC(=O)[C@H](C(C)C)NC2=O` [BeKm-1] (H-RPTDIKCSESYQCFPVCKSRFGKTNGRCVNGFCDCF-OH; disulfide 7-28, 13-33, 17-35 (inferred); N-terminus and C-terminus assumed), for the setting “2 nM”, the contraction amplitude result is reported as “not significantly different from the control”; the “pulse width PW95” value is recorded as “significant alteration”; the “pulse widths PW30, PW70 and PW90” value was “none of the pulse widths (PW) PW30, PW70, and PW90 parameters were significantly altered”. In addition, under “2 nM vs vehicle”, the interbeat interval increase was 16.7%, the “slowing of relaxation phase” value came out at 19.8% and the “slowing of rising phase of contraction” value is 1.29 -fold. In addition, under setting [1], the “SD1 increase (instantaneous contraction-to-contraction interval variability)” value was 2 -fold and the “SD2 increase (continuous long-term interval variability)” value is on record as 1.7 -fold. Moreover, the interbeat interval (2 nM, 37 °C, vehicle 2.03 ± 0.1 s, n = 8, mean ± SEM) turned out to be 2.37 ± 0.2 s. Besides, for the setting “2 nM, 37 °C, vehicle 203.5 ± 11.3 ms, n = 8, mean ± SEM”, the “duration of rising phase of contraction (Trise)” value was 262.6 ± 16.9 ms. Further, the “duration of relaxation phase (Tfall)” value (2 nM, 37 °C, vehicle 719.2 ± 45.8 ms, n = 8, mean ± SEM) came out at 862.1 ± 82.0 ms. Further, the “interbeat interval and its variability” value (2 nM, Poincaré plot) is listed as “significantly increased”.

Values taken from paper PMC7582727, “Functional Impact of BeKm-1, a High-Affinity hERG Blocker, on Cardiomyocytes Derived from Human-Induced Pluripotent Stem Cells” (International Journal of Molecular Sciences, 2020).
